Earlier results, collected in US20160000762A1, “IMPROVING COGNITIVE FUNCTION” (THE REGENTS OF THE UNIVERSITY OF CALIFORNIA, priority 2013, published 2016).

Tested on: Aβ
Settings: after traumatic brain injury; Loane et al., 2009; cited from earlier work

C[C@H](NC(=O)Cc1cc(F)cc(F)c1)C(=O)N[C@H](C(=O)OC(C)(C)C)c1ccccc1 [DAPT]
Aβ levels: decreased
behavioral performance: improved
